Data set [1] concerns Pseudomonas aeruginosa DSM 50071. Nature of the data set: MIC by microbroth dilution. The format is cell-based. The conditions noted are these: 16 h, 30° C., n.i. = no inhibition up to 67 μg/ml. The method, then:
(§1) Bacterial strains. Bacterial wildtype strains used in susceptibility assays were either part of HZI's strain collection or purchased from the German Collection of Microorgansims and Cell Cultures (Deutsche Sammlung von Mikroorganismen und Zellkulturen, DSMZ).
(§2) Minimum inhibitory concentration (MIC) was determined by microbroth dilution. In brief, overnight cultures of bacteria (EBS medium) were diluted to OD600 0.01. Disciformycin A (1) or B (2) dissolved in DMSO was added directly to the cultures in 96-well plates (Sarstedt, flat bottom) in duplicate and the compound was tested in serial dilution. […] After 16 h incubation at 900 rpm and 30° C. on a microplate shaker (Titramax, Heidolph) absorbance at 600 nm was measured using a microplate reader (POLARstar Omega, BMG Labtech). MIC values were determined by sigmoidal curve fitting.
(In general: Broth dilution looks for growth in wells or tubes with falling amounts of substance.)

The subject of a further data set is Bacillus subtilis DSM 10. Nature of the data set: MIC by microbroth dilution. The format is cell-based. The conditions noted are these: 16 h, 30° C., n.i. = no inhibition up to 67 μg/ml. The method, then: as §1, §2
In data set [2] the test system is Chromobacterium violaceum DSM 30191. Put plainly: MIC by microbroth dilution. Format: cell-based. The conditions noted are these: 16 h, 30° C., n.i. = no inhibition up to 67 μg/ml. The method, then:
as §1, §2

The subject of data set [3] is Escherichia coli DSM 1116. Nature of the data set: MIC by microbroth dilution. Format: cell-based. The note with it: 16 h, 30° C., n.i. = no inhibition up to 67 μg/ml. The method, then:
as §1, §2

Data set [4] relates to Micrococcus luteus DSM 20030. Put plainly: MIC by microbroth dilution. The conditions noted are these: 16 h, 30° C., n.i. = no inhibition up to 67 μg/ml. Format: cell-based. Here is the method:
as §1, §2

The test system of data set [5] is Mycobacterium diemhoferi DSM 43524. Put plainly: MIC by microbroth dilution. The conditions noted are these: 16 h, 30° C., n.i. = no inhibition up to 67 μg/ml. The format is cell-based. Here is the method:
as §1, §2

Data set [6] concerns Mycobacterium sp. DSM 43270. Nature of the data set: MIC by microbroth dilution. Format: cell-based. The note with it: 16 h, 30° C., n.i. = no inhibition up to 67 μg/ml. The method, then:
as §1, §2

In data set [7] the test system is Nocardioides simplex DSM 20130. Put plainly: MIC by microbroth dilution. Format: cell-based. The note with it: 16 h, 30° C., n.i. = no inhibition up to 67 μg/ml. Here is the method: as §1, §2
Data set [8] deals with Paenibacillus polymyxa DSM 36. Put plainly: MIC by microbroth dilution. The format is cell-based. The conditions noted are these: 16 h, 30° C., n.i. = no inhibition up to 67 μg/ml. Here is the method: as §1, §2
Data set [9] relates to Staphylococcus aureus DSM 346. Put plainly: MIC by microbroth dilution. Format: cell-based. The note with it: 16 h, 30° C., n.i. = no inhibition up to 67 μg/ml. Here is the method: as §1, §2
For data set [10], the system named is primary monocytes from human peripheral blood. Nature of the data set: MTT assay, cytotoxic activity. The format is cell-based. The note with it: incubation 24 or 48 hours. Here is the method:
(§3) The cytotoxic activity of gulmirecin A (3) and gulmirecin B (4) against human cells was evaluated in the well-established MTT assay using primary monocytes from human peripheral blood as well as transformed lung epithelial cell A-549 cell and leukemic Mono Mac 6 cells. Furthermore, 3 and 4 were tested against K-562, HUVEC, and HeLa cells.
Human primary monocytes were isolated from leukocyte concentrates, obtained from the Institute of Transfusion Medicine at the University Hospital Jena, Germany. The concentrates were prepared from the blood of healthy adult human donors who had not taken any anti-inflammatory medication for the 10 days prior to blood donation, as described. In brief, freshly withdrawn peripheral blood was pretreated with citrate-phosphate-dextrose solution as anticoagulant and processed with the 2C+ protocol of the Atreus Whole Blood Processing System (Terum BCT). Peripheral blood mononuclear cells (PBMC) were isolated by dextran sedimentation and centrifugation on LSM 1077 lymphocyte separation medium (PAA Laboratories). For isolation of monocytes, the PBMC were washed twice with ice-cold phosphate buffered saline (PBS) and plated (density 2×10^7 cells/ml) in culture flasks (Greiner Bio-One) containing PBMC medium (RPMI 1640 medium supplemented with 100 U/ml penicillin, 100 μg/ml streptomycin and 2 mM L-glutamine) for 1.5 hours at 37° C., 5% CO2. Non-adherent cells were removed; adherent monocytes were scraped, washed with ice-cold PBS and resuspended in ice-cold PBS with a purity of >85%, defined by forward- and side-light scatter properties and detection of the CD14 surface molecule by flow cytometry (BD FACS Calibur). […]
Cells (3×10^5 Mono Mac 6, 1×10^5 A-549 cells, or 2×10^6 monocytes per well) were seeded in a 96-well plate in the respective medium (100 μl/well). […] Absorbance of each well was measured at 570 nm in a Multiskan™ microplate spectrophotometer (Thermo Scientific).
(In general: Formazan colour is commonly taken as a measure of viable cells.)

Data set [11] relates to transformed lung epithelial A-549 cells. Put plainly: MTT assay, cytotoxic activity. Format: cell-based, human. The note with it: incubation 24 or 48 hours. The method, then: as §3
(§4) The human monocytic cell line Mono Mac 6 was cultured in RPMI 1640 medium supplemented with FCS (10%, v/v), penicillin (100 U/ml), streptomycin (100 μg/ml), insulin (10 μg/ml), oxaloacetic acid (1 mM), sodium pyruvate (1 mM), and 1× non-essential amino acids at 37° C. and 5% CO2. A-549 cells (DSM ACC-107) were cultured in DMEM high glucose (4.5 g/l) medium supplemented with FCS (10% v/v), penicillin (100 U/ml) and streptomycin (100 μg/ml) at 37° C. in a 5% CO2 incubator. K-562 (DSM ACC 10) and HeLa cells (DSM ACC 57) were grown in RPMI 1640, whereas cells of HUVEC (ATCC CRL-1730) were cultured in DMEM medium. The respective media were supplemented with ultraglutamine 1 (10 ml/l), gentamicin sulfate (500 μl/l), and FCS (10% v/v).
(§5) Cells (3×10^5 Mono Mac 6, 1×10^5 A-549 cells, or 2×10^6 monocytes per well) were seeded in a 96-well plate in the respective medium (100 μl/well). Monocytes were allowed to adhere for 1.5 hours (37° C., 5% CO2) prior to treatment. Test compounds (0.3% DMSO as vehicle) were added to each well and samples were incubated for 48 hrs. Then, 20 μl of thiazolyl blue tetrazolium bromide (MTT, 5 mg/ml PBS) were added, and the incubation was continued at 37° C., 5% CO2 until blue staining of the vehicle control. Formazan formation was stopped by adding 100 μl of lysis buffer (SDS, 10%, w/v in 20 mM HCl) and samples were shaken overnight. Absorbance of each well was measured at 570 nm in a Multiskan™ microplate spectrophotometer (Thermo Scientific).

Data set [12] deals with leukemic Mono Mac 6 cells. Put plainly: MTT assay, cytotoxic activity. Format: cell-based, human. The note with it: incubation 24 or 48 hours. The method, then:
as §3, §4
as §5, with “Test compounds (0.3% DMSO as vehicle) were added to each well and samples were incubated for 48 hrs.” left out

The text below walks through data of patent US20200231562A1, “NOVEL MACROLIDE ANTIBIOTICS” (HELMHOLTZ-ZENTRUM FÜR INFEKTIONSFORSCHUNG GMBH, priority 2014, published 2020).

Marks after values point to notes of the source that are not given here.

Regarding Gentamycin [reference compound], the MIC in data set [1] is 42.0^[b] μg/ml.

For `CN(C)[C@@H]1C(O)=C(C(N)=O)C(=O)[C@@]2(O)C(O)=C3C(=O)c4c(O)cccc4[C@@](C)(O)[C@H]3[C@H](O)[C@@H]12.Cl` [Oxytetracyclin hydrochloride, reference compound], the MIC in the data set on Bacillus subtilis DSM 10 was 4.2^[a] μg/ml; in data set [2] it was 0.83^[a] μg/ml; in data set [3], 0.83^[a] μg/ml; in [4], 0.42^[a] μg/ml; in data set [5] it was ≤0.052^[a] μg/ml; in data set [6] it was 0.52^[a] μg/ml. Moreover, the results for the MIC in [7], in data set [8] and in data set [9] were 3.3^[a] μg/ml, 1.7^[a] μg/ml and 0.21^[a] μg/ml, respectively.

On to `CN[C@@H]1C[C@H]2O[C@@](C)([C@@H]1OC)n1c3ccccc3c3c4c(c5c6ccccc6n2c5c31)C(=O)NC4` [staurosporine, reference compound], for which the “cell viability / cytotoxicity (MTT)” value in data set [10], in data set [11] and in data set [12] was “highly cytotoxic” each time.
